Marks after values point to notes of the source that are not given here.
Tests used:
[1] = In vitro release of latanoprost and latanoprostene BUNOD in PBS after extemporaneous loading on MS5; format: physicochemical; conditions: for elution after 5 weeks of incubation: loaded on MS5, PBS 37 °C (FIG. 9); for % of prostaglandin analogues release after 10 min in PBS / % of prostaglandin analogues release after 1 day in PBS / % of prostaglandin analogues release after 7 days in PBS / % of prostaglandin analogues release after 18 days in PBS: loaded on sterile MS5, PBS pH 7.4, 37 °C
Experimental: Then, immediately after the loading step, 50 mL of PBS (Sigma P-5368; 10 mM phosphate buffered saline; NaCl 0,136 M; KCl 0,0027 M; pH 7.4) was added to the microspheres loaded with latanoprost or latanoprostene BUNOD for the in vitro drug release (37° C., 150 rpm). The medium was completely renewed after each sample collection (10 min, 2 h, 24 h and every 3-4 days during 5 weeks). The amounts of prostaglandin analogues in PBS supernatants were determined by RP-HPLC at 210 nm for latanoprost and latanoprostene BUNOD on a C18 column (46×150 mm) using a mobile phase made of acetonitrile/water containing 0.1% TFA (60:40, v/v) at a flow rate of 1 mL/min in the isocratic mode at 25° C. The results are summarized in Table 7 and in FIG. 9 for each drug.

[2] = Extemporaneous loading of latanoprost and latanoprostene BUNOD on sterile MS5; format: physicochemical; conditions: for Drug loading on MS5: extemporaneous loading on freeze-dried e-beam sterilized MS5, 5 min room temperature; for loading efficiencies (%) on MS5: extemporaneous loading on sterile MS5, 5 min room temperature
Experimental: After the sieving step of MS5, 100 μL or 250 μL of pellets were suspended in 5 mL of a solution containing 2.5% (w/v) of mannitol. After homogenization, the pellets of microspheres were recovered, frozen-dried and sterilized by e-beam radiation (25 kilograys).
Latanoprost Loading To the dry and sterile pellets of microspheres (250 μL), 500 μL of latanoprost solution (TRC-L177280-10MG) at 2 mg/mL in acetonitrile/water mixture (70/30) were added. After 5 min of mixing at room temperature under stirring on a tube rotator (=30 rpm), the supernatants were removed for the measurement of unbound latanoprost by RP-HPLC at 210 nm on a C18 column (46×150 mm) using a mobile phase made of acetonitrile/water containing 0.1% TFA (60:40, v/v) at a flow rate of 1 mL/min in the isocratic mode at 25° C. The amount of latanoprost in supernatants was obtained by extrapolation from a standard curve (0.5 to 20 μg/mL). The loaded dose was calculated by subtracting the final amount of latanoprost from the initial amount. The latanoprost loading for 1 mL of beads was obtained by multiplying by 4 the quantity loaded on 250 μL of MS.
Latanoprostene BUNOD is a nitric oxide (NO)-donating prostaglandin F2a analogue approved for the reduction of intraocular pressure in patients with open-angle glaucoma or ocular hypertension. To the dry and sterile pellets of microspheres (100 μL), 700 μL of latanoprotene BUNOD (TRC-L177335-2.5MG) solution at 1 mg/mL in acetonitrile/water mixture (70/30%) were added. After 5 min of mixing at room temperature under stirring on a tube rotator (=30 rpm), the supernatants were removed for the measurement of unbound drug by RP-HPLC at 210 nm on a C18 column (46×150 mm) using a mobile phase made of acetonitrile/water containing 0.1% TFA (60:40, v/v) at a flow rate of 1 mL/min in the isocratic mode at 25° C. The amount of latanoprotene BUNOD in supernatants was obtained by extrapolation from a standard curve (0.25 to 25 μg/mL). The loaded dose was calculated by subtracting the final amount of latanoprotene BUNOD from the initial amount. The latanoprotene BUNOD loading for 1 mL of beads was obtained by multiplying by 10 the quantity loaded on 100 μL of MS.

[3] = pubchem.ncbi.nlm.nih.gov; cited from earlier work
[4] = In vitro release of travoprost in PBS after extemporaneous loading; format: physicochemical; conditions: from MS5 after extemporaneous loading; PBS 37 °C (FIG. 7)
Experimental: Then, PBS (50 mL) was added to the microspheres loaded with travoprost for the in vitro drug release experiment (37° C., 150 rpm). The medium was completely renewed after each sample collection. The amounts of travoprost in PBS supernatants were determined by RP-HPLC at 222 nm on a C18 column (46×150 mm) using a mobile phase made of acetonitrile/water containing 0.1% TFA (60:40, v/v) at a flow rate of 1 mL/min in the isocratic mode at 25° C.

Structure (SMILES)	elution after 5 weeks of incubation [1]	% of prostaglandin analogues release after 10 min in PBS [1] [%]	% of prostaglandin analogues release after 1 day in PBS [1] [%]	% of prostaglandin analogues release after 7 days in PBS [1] [%]	% of prostaglandin analogues release after 18 days in PBS [1] [%]	Drug loading on MS5 [2] [mg/mL]	amount of drug loaded on the degradable microsphere MS5 ([2]; extemporaneous loading on sterile MS5)	loading efficiencies (%) on MS5 [2]	Partition coefficient P (Log P) of the prostaglandin analogues [3]	duration of sustained travoprost release [4]	initial burst release of travoprost [4] [%]
O=C(CCC/C=C\C[C@@H]1[C@@H](CC[C@@H](O)CCc2ccccc2)[C@H](O)C[C@@H]1O)OCCCCO[N+](=O)[O-] [Latanoprostene BUNOD]	practically complete	7.04 ± 2.2	32.4 ± 4.1	45.2 ± 4.5	60 ± 6.2	6.58 ± 0.1	at least 6.5 mg	(94%)	3.79-3.94		
CC(C)OC(=O)CCC/C=C\C[C@@H]1[C@@H](/C=C/[C@@H](O)COc2cccc(C(F)(F)F)c2)[C@H](O)C[C@@H]1O [travoprost]										at least two months	3.5
CC(C)OC(=O)CCC/C=C\C[C@@H]1[C@@H](CC[C@@H](O)CCc2ccccc2)[C@H](O)C[C@@H]1O [Latanoprost]	practically complete	8.7 ± 0.5	42.3 ± 10	59.7 ± 11.1	77.5 ± 11.9	3.83 ± 0.07		(98%)**			

Reference: patent US20230241017A1, “Hydrophilic Degradable Microsphere for Delivering Travoprost” (Occlugel, priority 2020, published 2023)
